Test results from paper PMC8344021, “Discovery of Small Molecule Bak Activator for Lung Cancer Therapy” (Theranostics, 2021).

Tests used:
[1] = system: NSCLC and SCLC cell lines; test: Apoptotic cell death in panel of NSCLC and SCLC cell lines; type: cell-based, human; conditions: 1μM
Method: Figure 1 Discovery of small molecule BKA-073 as a lead compound that targets BH3 domain of Bak and induces mitochondrial priming and apoptosis in lung cancer cells. (A) Schematic illustration of screening strategies used to identify the lead Bak agonist BKA-073 and its chemical structure. (B) Structural modeling of BKA-073 in the BH3 domain binding pocket of Bak protein. (C) Expression levels of Bak were analyzed by Western blot in NSCLC and SCLC cell lines. (D-E) A panel of NSCLC and SCLC cell lines were treated with BKA-073 (1μM) for 16h or 72h, followed by analysis of dynamic BH3 profiling (D) or apoptotic cell death (E), respectively. Data represent the mean ± SD, n = 3 per group. **P < 0.01, ***P < 0.001, by 2-tailed t test. TEXT PRINTED IN THE PICTURE: (A) BKA-073: MW: 361.87 […]
Supplemental Materials and Methods
Small molecule NSC14073 (BKA-073) was obtained from the Drug Synthesis and Chemistry Branch, Developmental Therapeutic Program, Division of Cancer Treatment and Diagnosis, National Cancer Institute (NCI, Bethesda, MD) (http://dtp.nci.nih.gov/RequestCompounds).
Venetoclax (ABT-199, 205807) was purchased from MedKoo Biosciences (Morrisville, NC).
Antibodies including PARP (sc-8007), Bax (sc-7480), Mcl-1 (sc-12756), cytochrome c (sc-13156) and actin (sc-47778) were purchased from Santa Cruz (Santa Cruz, CA). Bcl2 antibody (05-826) was obtained from Calbiochem (Darmstadt, Germany). Bcl-XL (ab32370), Bak (ab32371) and Bax (ab104156) antibodies were purchased from Abcam (Cambridge, MA). […]
Cells were seeded at a density of 5 × 103 per well in 96-well plates and allowed to grow overnight. After treatment with BKA-073, the surviving cell fraction was determined using the sulforhodamine B (SRB) assay as described. Optical density (OD) was measured at 510nm in a microplate reader (Synergy H1, BioTek®, Winooski, VT). […]
Apoptotic cells were detected using Annexin-V Apoptosis Detection Kit (556547, BD Biosciences, San Jose, CA) according to the manufacturer’s instructions. […]

[2] = system: MDA-MB-231, MCF7, HCT-116, Ramos, OPM-1, PANC-1 and U2OS cell lines; test: Dynamic BH3 profiling in other types of cancer cell lines; type: cell-based, human; conditions: 1μM, 16h
Method: DBP using Bim peptide was carried out as described previously [24]-[26]. After treatment with BKA-073, venetoclax (ABT-199) or DMSO control for 16h, cells were collected, washed and resuspended at 2 x 10^6 cells/ mL in mannitol experimental buffer (MEB) [150 mM D-mannitol, 10 mM HEPES-KOH (pH 7.5), 50 mM KCl, 20 μM EGTA, 20 μM EDTA, 0.1% BSA, and 5 mM succinate] as described. One volume of the 4x cell suspension was added to one volume of a 4x dye solution containing 4 μM JC-1, […] oligomycin, 0.02% digitonin, 20mM β-mercaptoethanol in MEB. The 2x cell/dye mixture was allowed to rest for 5-10 min at room temperature to allow for permeabilization and JC-1 staining. A total of 15μl of the 2x cell/dye mixture was loaded into a 384-well plate that contained 15µL of Bim BH3 peptide (0.03, 0.1, 0.3, 1, and 3 μM) in MEB, shaken for 15 s inside the reader, and the fluorescence at 590 nm monitored every 5 min for 180 min at 32 °C. The dynamic BH3 profile (∆ % Priming) was calculated as described [24]-[26].
Figure S2. BKA-073 induces mitochondrial priming and apoptosis in various type of cancers. (A) Expression levels of Bak were analyzed by Western blot in various type of cancer cell lines. (B-C) Various type of cancer cell lines were treated with BKA -073 (1µM) for 16h or 72h, followed by analysis of dynamic BH3 profiling (B) or apoptotic cell death (C), respectively. […]

## COc1ccc2nc3ccccc3c(NCCNCC(C)O)c2c1 (stereo not shown) [BKA-073]
[1]; 72h
  induction of apoptosis: potently induced
[1]; A549, H157, H1975, DMS53, DMS114, H209, H526
  sensitivity (mitochondrial priming and apoptosis), lines with relatively higher Bak: more sensitive
[1]; Calu-1, H69, H128, H146
  sensitivity (mitochondrial priming and apoptosis), lines with relatively lower Bak: less sensitive
[2]
  induction of mitochondrial priming: potently induced
